Data: US9376436B2, “2-(pyridin-2yl)-1, 7-diaza-spiro [4.4] nonane-6-one compound as voltage-gated sodium channels modulators” (CONVERGENCE PHARMACEUTICALS LIMITED, priority 2011, dated 2016)
Structures can show the parent of a compound that is named as a salt. Where two headings read alike, the source gives them in different places.

Target: T1, hNaV1.7 (Homo sapiens, UniProt Q15858)
T1 construct: expressed in transfected cells; host or cells: HEK293
Assay: QPatch NaV1.7 assay (whole-cell patch clamp, QPatch16x)
Type: cell-based
Settings: HEK293-hNaV1.7 cells
In short: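 HEK293 cells expressing hNaV1.7 recorded by automated whole-cell patch clamp (CsF internal, pH 7.3). Peak currents from 20 ms steps to 0 mV measured at holding potentials of −90 mV and V1/2 SSI; four-point cumulative concentrations, 120 s each, Hill fits gave pIC50 at each potential.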

[1] = holding voltage V1/2 SSI (half of channels inactivated), read-out: QP Nav1.7 SSI vhalf pIC50 (converted)
[2] = holding voltage −90 mV (most channels closed), read-out: QP Nav1.7 −90 mV pIC50 (converted)

T1 sequence (Q15858 whole entry): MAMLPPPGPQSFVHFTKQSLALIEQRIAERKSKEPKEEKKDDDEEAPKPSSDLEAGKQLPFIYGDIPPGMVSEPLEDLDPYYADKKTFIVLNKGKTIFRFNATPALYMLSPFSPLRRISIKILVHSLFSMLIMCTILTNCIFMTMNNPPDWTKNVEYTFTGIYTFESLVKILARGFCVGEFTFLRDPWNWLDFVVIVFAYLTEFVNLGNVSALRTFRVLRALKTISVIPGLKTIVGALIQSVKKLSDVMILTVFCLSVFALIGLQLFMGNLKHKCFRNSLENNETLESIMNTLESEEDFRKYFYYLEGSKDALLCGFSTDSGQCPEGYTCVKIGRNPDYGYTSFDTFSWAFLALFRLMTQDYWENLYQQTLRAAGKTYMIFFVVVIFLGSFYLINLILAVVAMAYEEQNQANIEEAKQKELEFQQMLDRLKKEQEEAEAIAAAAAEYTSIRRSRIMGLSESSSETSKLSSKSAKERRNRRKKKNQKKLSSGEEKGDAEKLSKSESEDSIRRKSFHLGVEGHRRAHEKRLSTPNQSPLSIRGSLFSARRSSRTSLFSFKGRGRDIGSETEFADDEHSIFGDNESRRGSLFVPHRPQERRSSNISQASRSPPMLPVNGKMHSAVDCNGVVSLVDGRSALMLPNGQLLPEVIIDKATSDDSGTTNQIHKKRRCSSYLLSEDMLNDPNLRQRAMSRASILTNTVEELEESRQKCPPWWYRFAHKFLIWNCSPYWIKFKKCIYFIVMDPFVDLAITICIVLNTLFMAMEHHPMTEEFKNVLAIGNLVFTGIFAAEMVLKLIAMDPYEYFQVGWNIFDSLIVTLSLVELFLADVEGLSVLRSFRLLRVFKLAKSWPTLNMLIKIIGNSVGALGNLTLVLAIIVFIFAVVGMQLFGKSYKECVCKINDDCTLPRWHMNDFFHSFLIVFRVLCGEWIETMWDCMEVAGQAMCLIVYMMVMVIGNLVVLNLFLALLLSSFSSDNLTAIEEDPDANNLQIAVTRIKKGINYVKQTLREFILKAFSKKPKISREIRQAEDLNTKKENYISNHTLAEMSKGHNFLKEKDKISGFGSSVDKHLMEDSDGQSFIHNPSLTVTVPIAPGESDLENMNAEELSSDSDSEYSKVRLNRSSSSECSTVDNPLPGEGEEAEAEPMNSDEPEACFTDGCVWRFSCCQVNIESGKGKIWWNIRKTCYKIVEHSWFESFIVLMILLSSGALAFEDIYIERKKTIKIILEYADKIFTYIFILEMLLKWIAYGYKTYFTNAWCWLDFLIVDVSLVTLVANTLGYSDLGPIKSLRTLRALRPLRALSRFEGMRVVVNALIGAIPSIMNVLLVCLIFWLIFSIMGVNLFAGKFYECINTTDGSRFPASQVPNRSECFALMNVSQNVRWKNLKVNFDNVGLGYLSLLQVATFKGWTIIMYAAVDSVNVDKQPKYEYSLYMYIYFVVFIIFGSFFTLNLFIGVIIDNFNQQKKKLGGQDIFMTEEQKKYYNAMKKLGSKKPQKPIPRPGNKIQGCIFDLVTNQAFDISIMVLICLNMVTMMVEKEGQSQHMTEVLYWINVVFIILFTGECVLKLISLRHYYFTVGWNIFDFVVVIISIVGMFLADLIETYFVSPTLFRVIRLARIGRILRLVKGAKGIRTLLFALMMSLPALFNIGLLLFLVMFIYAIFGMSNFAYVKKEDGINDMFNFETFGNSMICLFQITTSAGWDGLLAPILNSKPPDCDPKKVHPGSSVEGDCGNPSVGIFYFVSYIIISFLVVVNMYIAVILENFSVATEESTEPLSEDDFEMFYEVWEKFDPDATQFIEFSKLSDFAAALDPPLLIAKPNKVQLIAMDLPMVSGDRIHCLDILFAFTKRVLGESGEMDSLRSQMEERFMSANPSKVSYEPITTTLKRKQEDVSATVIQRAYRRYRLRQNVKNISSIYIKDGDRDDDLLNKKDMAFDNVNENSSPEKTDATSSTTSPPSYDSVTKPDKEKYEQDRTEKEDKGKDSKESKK

SMILES | IC50 [1] | IC50 [2]
CN1CC[C@@]2(CC[C@H](c3cc(-c4cc(OCC(F)F)ccc4F)ccn3)N2)C1=O [Example 252, (2R,5S)-2-[4-[5-(2,2-Difluoroethoxy)-2-fluoro-phenyl]-2-pyridyl]-7-methyl-1,7-diazaspiro[4.4]nonan-6-one hydrochloride] | 12.6 µM | 79.4 µM
CC(C)COc1ccc(F)c(-c2ccnc([C@H]3CC[C@@]4(CCN(C)C4=O)N3)c2)c1 [Example 253, (2R,5S)-2-[4-(2-Fluoro-5-isobutoxy-phenyl)-2-pyridyl]-7-methyl-1,7-diazaspiro[4.4]nonan-6-one hydrochloride] | 0.0794 µM | 3.16 µM
CC(Oc1ccc(F)c(-c2ccnc([C@H]3CC[C@@]4(CCN(C)C4=O)N3)c2)c1)C1CC1 (stereo partly drawn) [Example 255, (2R,5S)-2-[4-[5-(1-(Cyclopropyl)ethoxy)-2-fluoro-phenyl]-2-pyridyl]-7-methyl-1,7-diazaspiro[4.4]nonan-6-one hydrochloride] | 10 µM | 100 µM
CCC(=O)c1ccc(F)c(-c2ccnc([C@H]3CC[C@@]4(CCN(C)C4=O)N3)c2)c1 [Example 257, (2R,5S)-2-[4-(2-Fluoro-5-propanoyl-phenyl)-2-pyridyl]-7-methyl-1,7-diazaspiro[4.4]nonan-6-one hydrochloride] | 63.1 µM | 2510 µM

Other lines, results leading:

IC50 [1] | IC50 [2] | SMILES
39.8 µM | 398 µM | CN1CC[C@@]2(CC[C@H](c3cc(-c4cc(OCCF)ccc4F)ccn3)N2)C1=O [Example 251, (2R,5S)-2-[4-[2-Fluoro-5-(2-fluoroethoxyl)phenyl]-2-pyridyl]-7-methyl-1,7-diazaspiro[4.4]nonan-6-one hydrochloride]
6.31 µM | 50.1 µM | Cl.[2H]C([2H])(C)Oc1ccc(F)c(-c2ccnc([C@H]3CC[C@@]4(CCN(C)C4=O)N3)c2)c1 [Example 254, (2R,5S)-2-[4-[5-(1,1-Dideuterioethoxy)-2-fluoro-phenyl]-2-pyridyl]-7-methyl-1,7-diazaspiro[4.4]nonan-6-one hydrochloride]
31.6 µM | 39800 µM | CCn1ncc2cc(F)c(-c3ccnc([C@H]4CC[C@@]5(CCN(C)C5=O)N4)c3)cc21 [Example 258, (2R,5S)-2-[4-(1-Ethyl-5-fluoro-indazol-6-yl)-2-pyridyl]-7-methyl-1,7-diazaspiro[4.4]nonan-6-one hydrochloride]
1260 µM | 158 µM | CCn1cc2cc(F)c(-c3ccnc([C@H]4CC[C@@]5(CCN(C)C5=O)N4)c3)cc2n1 [Example 259, (2R,5S)-2-[4-(2-Ethyl-5-fluoro-indazol-6-yl)-2-pyridyl]-7-methyl-1,7-diazaspiro[4.4]nonan-6-one hydrochloride]
